# Assay results as given in PubChem BioAssay AID330 (DTP/NCI, 2004).
# “And” between values parts separate entries of the source, which are not always exact repeats. Equal entries are not always repeated. Inconclusive results and toxic doses are left out.
# Test system: P388 leukemia ip, CD2F1 mice, survival T/C
# Assay: NCI In Vivo Anticancer Drug Screen. Data for tumor model P388 Leukemia (intraperitoneal) in CD2F1 (CDF1) mice
# Settings: endpoint: median survival time, higher = longer survival
# Method in brief: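 Mice carrying the transplanted tumor received test compound or vehicle. Survival was recorded in each group, and the value is the treated-group measurement divided by that of the vehicle-treated control group.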
# [1] = dose: 100.0 mg/kg/injection, schedule: Q04DX002 (ip), vehicle: saline with Tween-80
# [2] = dose: 25.0 mg/kg/injection, schedule: Q01DX009 (ip), vehicle: saline
# [3] = dose: 50.0 mg/kg/injection, schedule: Q01DX009 (ip), vehicle: saline
# [4] = dose: 100.0 mg/kg/injection, schedule: Q01DX009 (ip), vehicle: saline
# [5] = dose: 200.0 mg/kg/injection, schedule: Q01DX009 (ip), vehicle: saline
# [6] = dose: 6.25 mg/kg/injection, schedule: Q01DX009 (ip), vehicle: saline
# [7] = dose: 12.5 mg/kg/injection, schedule: Q01DX009 (ip), vehicle: saline
# [8] = dose: 50.0 mg/kg/injection, schedule: Q01DX009 (ip), vehicle: Klucel (hydroxypropylcellulose) (HPC)
# [9] = dose: 100.0 mg/kg/injection, schedule: Q01DX009 (ip), vehicle: Klucel (hydroxypropylcellulose) (HPC)
# [10] = dose: 50.0 mg/kg/injection, schedule: Q01DX005 (ip), vehicle: saline with Tween-80
# [11] = dose: 100.0 mg/kg/injection, schedule: Q01DX005 (ip), vehicle: saline with Tween-80
# [12] = dose: 200.0 mg/kg/injection, schedule: Q01DX005 (ip), vehicle: saline with Tween-80
# [13] = dose: 60.0 mg/kg/injection, schedule: Q01DX005 (ip), vehicle: saline with Tween-80
smiles,measurement,setting,value
O=C(Nc1ccc(C2=NCCN2)cc1)c1ccc(C(=O)Nc2ccc(C3=NCCN3)cc2)c(Cl)c1,T/C,"dose: 0.2 mg/kg/injection, schedule: Q01DX009 (ip), vehicle: saline with Tween-80",99 % of control
same,T/C,"dose: 0.39 mg/kg/injection, schedule: Q01DX009 (ip), vehicle: saline with Tween-80",117 % of control
same,T/C,"dose: 0.78 mg/kg/injection, schedule: Q01DX009 (ip), vehicle: saline with Tween-80",122 % of control
same,T/C,"dose: 20.0 mg/kg/injection, schedule: Q01DX010 (ip), vehicle: water",163 % of control
same,T/C,"dose: 45.0 mg/kg/injection, schedule: Q04DX003 (ip), vehicle: saline",95 % of control
Cc1c(C(N)=O)c(-c2ccccc2)c(-c2ccccc2)n1Nc1ccccc1,T/C,"dose: 60.0 mg/kg/injection, schedule: Q01DX005 (ip), vehicle: Klucel (hydroxypropylcellulose) (HPC)",95 % of control
same,T/C,"dose: 120.0 mg/kg/injection, schedule: Q01DX005 (ip), vehicle: Klucel (hydroxypropylcellulose) (HPC)",96 % of control
same,T/C,"dose: 240.0 mg/kg/injection, schedule: Q01DX005 (ip), vehicle: Klucel (hydroxypropylcellulose) (HPC)",92 % of control
O=C(ON1C(=O)CCC1=O)C1CCC(CN2C(=O)C=CC2=O)CC1 (configuration not stated),T/C,[1],120 % of control
CN1C(=O)/C(=N\n2c(-c3ccccc3)nc3ccccc3c2=O)c2ccccc21,T/C,"dose: 25.0 mg/kg/injection, schedule: Q01DX005 (ip), vehicle: Klucel (hydroxypropylcellulose) (HPC)",91 % of control
same,T/C,"dose: 50.0 mg/kg/injection, schedule: Q01DX005 (ip), vehicle: Klucel (hydroxypropylcellulose) (HPC)",87 % of control and 88 % of control
same,T/C,"dose: 100.0 mg/kg/injection, schedule: Q01DX005 (ip), vehicle: Klucel (hydroxypropylcellulose) (HPC)",102 % of control and 89 % of control
same,T/C,"dose: 200.0 mg/kg/injection, schedule: Q01DX005 (ip), vehicle: Klucel (hydroxypropylcellulose) (HPC)",100 % of control
CN1CC(C(N)=O)=CC(C(N)=O)C1 (configuration not stated),T/C,"dose: 25.0 mg/kg/injection, schedule: Q01DX005 (ip), vehicle: saline",97 % of control
same,T/C,"dose: 50.0 mg/kg/injection, schedule: Q01DX005 (ip), vehicle: saline",96 % of control
same,T/C,"dose: 100.0 mg/kg/injection, schedule: Q01DX005 (ip), vehicle: saline",113 % of control
same,T/C,"dose: 200.0 mg/kg/injection, schedule: Q01DX005 (ip), vehicle: saline",111 % of control
NC(CC(=O)O)C(=O)OCc1cccc(N=Nc2ccccc2)c1 (configuration not stated),T/C,"dose: 50.0 mg/kg/injection, schedule: Q04DX003 (ip), vehicle: saline with Tween-80",99 % of control
same,T/C,"dose: 100.0 mg/kg/injection, schedule: Q04DX003 (ip), vehicle: saline with Tween-80",90 % of control
same,T/C,"dose: 200.0 mg/kg/injection, schedule: Q04DX003 (ip), vehicle: saline with Tween-80",93 % of control
O=C1NC(CN2CCC(O)CC2)C(=O)NC1CN1CCC(O)CC1 (configuration not stated),T/C,[2],100 % of control
same,T/C,[3],100 % of control
same,T/C,[4],98 % of control
same,T/C,[5],97 % of control
Clc1c(Cl)c(Cl)c(C[n+]2ccccc2)c(Cl)c1Cl,T/C,[6],105 % of control
same,T/C,[7],98 % of control
same,T/C,[2],102 % of control
same,T/C,[3],99 % of control
CCOc1ccc(-n2c(=O)c(N=Nc3ccc(OC)cc3)c(O)n(-c3ccccc3Cl)c2=S)cc1,T/C,"dose: 50.0 mg/kg/injection, schedule: Q01DX001 (ip), vehicle: Klucel (hydroxypropylcellulose) (HPC)",97 % of control
same,T/C,"dose: 100.0 mg/kg/injection, schedule: Q01DX001 (ip), vehicle: Klucel (hydroxypropylcellulose) (HPC)",94 % of control
same,T/C,"dose: 200.0 mg/kg/injection, schedule: Q01DX001 (ip), vehicle: Klucel (hydroxypropylcellulose) (HPC)",94 % of control
CC(/C=N\N=C(N)N)=N/NC(N)=O,T/C,[3],92 % of control
same,T/C,[4],108 % of control
same,T/C,[5],115 % of control
O=C1/C(=C/c2ccccc2[N+](=O)[O-])CCCc2ccccc21,T/C,[8],94 % of control
same,T/C,[9],103 % of control
same,T/C,"dose: 200.0 mg/kg/injection, schedule: Q01DX009 (ip), vehicle: Klucel (hydroxypropylcellulose) (HPC)",105 % of control
C=C1CCOC1=O,T/C,"dose: 50.0 mg/kg/injection, schedule: Q04DX002 (ip), vehicle: saline with Tween-80",97 % of control
same,T/C,[1],105 % of control
same,T/C,"dose: 200.0 mg/kg/injection, schedule: Q04DX002 (ip), vehicle: saline with Tween-80",105 % of control
COC(=O)C(CC(=O)c1cc2c(cc1Br)OCO2)(Cc1cc(OC)c(OC)c(OC)c1I)C(=O)OC,T/C,"dose: 3.12 mg/kg/injection, schedule: Q01DX009 (ip), vehicle: saline",97 % of control
same,T/C,[6],98 % of control
same,T/C,[7],97 % of control
same,T/C,[2],98 % of control
same,T/C,"dose: 100.0 mg/kg/injection, schedule: Q01DX001 (ip), vehicle: saline",100 % of control
same,T/C,"dose: 200.0 mg/kg/injection, schedule: Q01DX001 (ip), vehicle: saline",98 % of control
same,T/C,"dose: 400.0 mg/kg/injection, schedule: Q01DX001 (ip), vehicle: saline",100 % of control
Cc1ccc(-c2nc3ccccc3c(=O)n2/N=C/c2ccc(O)cc2)cc1,T/C,[10],100 % of control
same,T/C,[11],99 % of control
same,T/C,[12],89 % of control
O=C(NC(=O)c1ccccc1Cl)Nc1ccc(C(O)(C(F)(F)F)C(F)(F)F)cc1,T/C,[10],104 % of control
same,T/C,[11],102 % of control
same,T/C,[12],100 % of control
O=C1CSC(=S)N1c1ccc(Cl)cc1,T/C,"dose: 25.0 mg/kg/injection, schedule: Q01DX009 (ip), vehicle: Klucel (hydroxypropylcellulose) (HPC)",96 % of control
same,T/C,[8],96 % of control
same,T/C,[9],113 % of control
CCOC(=O)C#Cc1cccc(C#CC(=O)OCC)c1,T/C,"dose: 50.0 mg/kg/injection, schedule: Q01DX001 (ip), vehicle: saline with Tween-80",98 % of control
same,T/C,"dose: 100.0 mg/kg/injection, schedule: Q01DX001 (ip), vehicle: saline with Tween-80",99 % of control and 118 % of control
same,T/C,"dose: 200.0 mg/kg/injection, schedule: Q01DX001 (ip), vehicle: saline with Tween-80",120 % of control
O=NN(CCCl)C(=O)NC1C2CC3CC(C2)CC1C3 (configuration not stated),T/C,"dose: 1.78 mg/kg/injection, schedule: Q01DX009 (ip), vehicle: other",118 % of control
same,T/C,"dose: 2.2 mg/kg/injection, schedule: Q04DX003 (ip), vehicle: other",104 % of control
same,T/C,"dose: 2.66 mg/kg/injection, schedule: Q01DX009 (ip), vehicle: other",116 % of control
same,T/C,"dose: 3.3 mg/kg/injection, schedule: Q04DX003 (ip), vehicle: other",118 % of control
same,T/C,"dose: 4.0 mg/kg/injection, schedule: Q01DX009 (ip), vehicle: other",169 % of control
same,T/C,"dose: 6.0 mg/kg/injection, schedule: Q01DX009 (ip), vehicle: other",225 % of control
same,T/C,"dose: 7.5 mg/kg/injection, schedule: Q04DX003 (ip), vehicle: other",177 % of control
same,T/C,"dose: 12.5 mg/kg/injection, schedule: Q04DX003 (ip), vehicle: other",180 % of control
same,T/C,"dose: 25.0 mg/kg/injection, schedule: Q04DX003 (ip), vehicle: other",300 % of control
same,T/C,"dose: 50.0 mg/kg/injection, schedule: Q04DX003 (ip), vehicle: other",300 % of control
same,T/C,"dose: 100.0 mg/kg/injection, schedule: Q04DX003 (ip), vehicle: other",105 % of control
COc1cc(O)c2c(c1)C(=O)C1=C(C2=O)[C@@H](C)OC(C)C1 (some centres not stated),T/C,"dose: 15.0 mg/kg/injection, schedule: Q01DX005 (ip), vehicle: saline with Tween-80",94 % of control
same,T/C,"dose: 30.0 mg/kg/injection, schedule: Q01DX005 (ip), vehicle: saline with Tween-80",96 % of control
same,T/C,[13],88 % of control and 94 % of control
Cn1cc(-c2ccc3c(c2)OCO3)c2ccccc21,T/C,[13],100 % of control
same,T/C,"dose: 120.0 mg/kg/injection, schedule: Q01DX005 (ip), vehicle: saline with Tween-80",100 % of control
same,T/C,"dose: 240.0 mg/kg/injection, schedule: Q01DX005 (ip), vehicle: saline with Tween-80",101 % of control
O=[N+]([O-])c1ccccc1N=Nc1c(-c2ccccc2)nn(C(=S)N2CCOCC2)c1-c1ccccc1,T/C,"dose: 1.5 mg/kg/injection, schedule: Q01DX005 (ip), vehicle: saline with Tween-80",102 % of control
same,T/C,"dose: 3.0 mg/kg/injection, schedule: Q01DX005 (ip), vehicle: saline with Tween-80",96 % of control
same,T/C,"dose: 6.0 mg/kg/injection, schedule: Q01DX005 (ip), vehicle: saline with Tween-80",87 % of control
same,T/C,"dose: 6.25 mg/kg/injection, schedule: Q01DX005 (ip), vehicle: saline with Tween-80",92 % of control
same,T/C,[11],86 % of control
same,T/C,[12],95 % of control
